pIC50: −log10 of the molar value.
Legend:
Format in all cases: biochemical
[1] = target: T1, human Axl (Homo sapiens, UniProt P30530); assay: Kinase enzymatic activity assay (33P-radiolabeled phosphate transfer), Axl; details: recombinant human Axl (473-end), poly(4:1 glu:tyr) substrate, 30 minutes
T1 construct: GST (N); made in house; host or cells: Sf9 insect cells (baculovirus)
T1 sequence (P30530 473-894 limits assumed): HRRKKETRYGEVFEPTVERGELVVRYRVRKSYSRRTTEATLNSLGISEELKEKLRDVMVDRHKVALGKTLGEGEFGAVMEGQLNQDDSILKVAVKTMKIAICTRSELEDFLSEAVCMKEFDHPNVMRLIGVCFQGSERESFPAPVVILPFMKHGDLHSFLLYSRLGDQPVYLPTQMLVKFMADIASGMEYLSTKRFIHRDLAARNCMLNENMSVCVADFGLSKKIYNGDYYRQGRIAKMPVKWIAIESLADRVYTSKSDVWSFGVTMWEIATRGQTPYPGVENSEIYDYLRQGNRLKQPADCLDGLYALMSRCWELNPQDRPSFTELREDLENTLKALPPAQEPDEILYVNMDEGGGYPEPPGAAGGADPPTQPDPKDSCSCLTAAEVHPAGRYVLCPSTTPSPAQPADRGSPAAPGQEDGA
Description: (§1) The identification of compounds of the invention as Tyro3, Axl or Mer inhibitors was readily accomplished using the recombinant human Tyro3, Axl and Mer proteins and employing the ^33P-radiolabeled phosphate transfer assay for which the procedure is known to someone skilled in the art or as described in Example 9.
(§2) Recombinant human Tyro3 (455-end, the gene accession number NM_006293), human Axl (473-end, the gene accession number NM_021913) and human Mer (578-872, the gene accession number NM_006343) were independently expressed by baculovirus in Sf9 insect cells using an N-terminal GST tag. The recombinant proteins were stored at −70° C. in a medium containing 50 mM Tris-HCl, pH 7.5, 150 mM NaCl, 10 mM glutathione, 0.1 mM EDTA, 0.25 mM DTT, 0.1 mM PMSF and 25% glycerol. The recombinant proteins were aliquoted into smaller quantities after centrifugation to avoid repeated handling and multiple freeze/thaw cycles for the most favorable performance.
(§3) Kinase Assay Buffer: This buffer solution consisted of the following components: 25 mM MOPS, pH 7.2, 12.5 mM β-glycerol-phosphate, 25 mM MgCl2, 5 mM EGTA, 2 mM EDTA and DTT 0.25 mM which was added prior to use.
(§4) Kinase Dilution Buffer: Kinase Assay Buffer was diluted at a 1:4 ratio (5× dilution) with distilled water.
(§5) [^33P]-ATP assay cocktail: In a designated radioactive working area, a 250 μM [^33P]-ATP assay cocktail was prepared by the addition of the following components: 150 μL of 10 mM ATP stock solution, 100 μL [^33P]-ATP (1 mci/100 μL), and 5.75 mL of kinase assay buffer. This solution was stored in 1 mL aliquots at −20° C.
(§6) ATP stock solution (10 mM): The ATP stock solution was prepared by dissolving 55 mg of ATP in 10 mL of kinase assay buffer. It was stored in 200 μL aliquots at −20° C.
(§7) Active Kinase Stock Solution: The active recombinant kinase protein (0.1 μg/μL) was diluted with Kinase Dilution Buffer and the activity was assayed using a serial dilution method. The specific activity is expressed in nmoL/min/mg.
(§8) Substrates: poly(4:1 glu:tyr) is the substrate used for each kinase Tyro3, Axl and Mer: The peptide substrate was dissolved in water to give the final concentration of 1 mg/mL.
(§9) Test compound solution: Test compound was dissolved in DMSO to obtain a 10 mM solution. The assay solution was prepared by adding 5 μL of this solution to […] of 10% DMSO/water to obtain the final concentration of 50 μM.
(§10) The enzymatic activity of all three kinases was determined as follows. Using a 96-well plate, the wells were divided into three categories: Blank wells, […] and Test wells. In Test wells, 5 μL of the test compound solution and 5 μL of the substrate solution were added. In Control wells, 5 μL of 10% DMSO/water and 5 μL of the substrate solution were added. In Blank wells, 10 μL of 10% DMSO/water was added. To each well was added 10 μL of Active Kinase Stock Solution to make up the volume in each well to 20 μL. All test samples, controls and blanks were run in duplicate. The reaction was initiated by the addition of 5 μL of [^33P]-ATP assay cocktail, bringing the final volume up to 25 μL in every well. The mixture was incubated at room temperature for 30 minutes. The reaction was terminated by transferring 10 μL of the reaction mixture into a Millipore MultiScreen filter plate (cat. number MSPHN6B50). The filter plate was washed in a 1% phosphoric acid solution with constant gentle shaking for 15 minutes and this step was repeated once. After the plate was dried in air, scintillation fluid was added to each well and the radioactivity in each well in CPM was counted by a Microbeta TriLux. The corrected CPM in each test well was determined by subtracting the average value of Blank well values. Percentage of inhibition of the kinase enzymatic activity by the test compound was determined using the following formula: […]
(§11) The IC50 values were determined in a similar way following a serial dilution of the test compound. […]

[2] = target: T2, human Tyro3 (Homo sapiens, UniProt Q06418); assay: Kinase enzymatic activity assay (33P-radiolabeled phosphate transfer), Tyro3; details: recombinant human Tyro3 (455-end), poly(4:1 glu:tyr) substrate, 30 minutes
T2 construct: GST (N); made in house; host or cells: Sf9 insect cells (baculovirus)
T2 sequence (Q06418 455-890 limits assumed): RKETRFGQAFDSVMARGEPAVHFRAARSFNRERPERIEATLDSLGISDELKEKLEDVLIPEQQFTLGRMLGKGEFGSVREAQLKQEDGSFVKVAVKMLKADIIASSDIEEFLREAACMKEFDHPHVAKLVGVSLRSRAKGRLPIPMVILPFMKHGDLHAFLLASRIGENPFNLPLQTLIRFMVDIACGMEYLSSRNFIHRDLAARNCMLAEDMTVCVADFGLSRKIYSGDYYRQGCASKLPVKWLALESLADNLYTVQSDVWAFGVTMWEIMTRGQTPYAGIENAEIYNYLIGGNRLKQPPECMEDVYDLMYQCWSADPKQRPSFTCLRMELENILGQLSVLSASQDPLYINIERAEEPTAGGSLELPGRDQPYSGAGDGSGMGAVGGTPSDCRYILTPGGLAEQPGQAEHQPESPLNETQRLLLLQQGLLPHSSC
Description: as §1, §2, §3, §4, §5, §6, §7, §8, §9, §10, §11

[3] = target: T3, human Mer (Homo sapiens, UniProt Q12866); assay: Kinase enzymatic activity assay (33P-radiolabeled phosphate transfer), Mer; details: recombinant human Mer (578-872), poly(4:1 glu:tyr) substrate, 30 minutes
T3 construct: GST (N); made in house; host or cells: Sf9 insect cells (baculovirus)
T3 sequence (Q12866 578-872): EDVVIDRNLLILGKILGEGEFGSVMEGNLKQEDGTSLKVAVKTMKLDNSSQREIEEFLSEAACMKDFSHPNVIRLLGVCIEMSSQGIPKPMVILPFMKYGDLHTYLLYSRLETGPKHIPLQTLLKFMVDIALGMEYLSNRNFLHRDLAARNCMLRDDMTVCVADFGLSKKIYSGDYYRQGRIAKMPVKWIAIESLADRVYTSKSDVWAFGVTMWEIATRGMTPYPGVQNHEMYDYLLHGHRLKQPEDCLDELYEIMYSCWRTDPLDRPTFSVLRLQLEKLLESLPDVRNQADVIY
Description: as §1, §2, §3, §4, §5, §6, §7, §8, §9, §10, §11

CN1CCC(COc2cc(OC3CCOCC3)c3c(Nc4nccs4)ncnc3c2)CC1 [Example 2.39, N-(7-((1-methylpiperidin-4-yl)methoxy)-5-((tetrahydro-2H-pyran-4-yl)oxy)quinazolin-4-yl)thiazol-2-amine]
pIC50 [1]: > 6.30 | pIC50 [2]: 6.00 to 6.30 | pIC50 [3]: > 6.30

CN1CCC(CCOc2cc(OC3CCOCC3)c3c(Oc4ccc(F)cc4Cl)ncnc3c2)CC1 [Example 2, 4-(2-chloro-4-fluorophenoxy)-7-(2-(1-methylpiperidin-4-yl)ethoxy)-5-((tetrahydro-2H-pyran-4-yl)oxy)quinazoline]
pIC50 [1]: 5.00 to 6.00 | pIC50 [2]: > 6.30 | pIC50 [3]: > 6.30

CN(C)CCCOc1cc(OC2CCOCC2)c2c(Oc3ccc(F)cc3Cl)ncnc2c1 [Example 2.62, 3-((4-(2-chloro-4-fluorophenoxy)-5-((tetrahydro-2H-pyran-4-yl)oxy)quinazolin-7-yl)oxy)-N,N-dimethylpropan-1-amine]
pIC50 [1]: 5.00 to 6.00 | pIC50 [2]: > 6.30 | pIC50 [3]: > 6.30

Cc1nnc(Nc2ncnc3cc(OCC4CCN(C)CC4)cc(OC4CCOCC4)c23)s1 [Example 2.36, 5-methyl-N-(7-((1-methylpiperidin-4-yl)methoxy)-5-((tetrahydro-2H-pyran-4-yl)oxy)quinazolin-4-yl)-1,3,4-thiadiazol-2-amine]
pIC50 [1]: 5.00 to 6.00 | pIC50 [2]: < 5.00 | pIC50 [3]: 5.00 to 6.00

OC[C@@H](O)COc1cc(OC2CCOCC2)c2c(Oc3ccc(F)cc3Cl)ncnc2c1 [Example 5, (R)-3-((4-(2-chloro-4-fluorophenoxy)-5-((tetrahydro-2H-pyran-4-yl)oxy)quinazolin-7-yl)oxy)propane-1,2-diol]
pIC50 [1]: 5.00 to 6.00 | pIC50 [2]: 6.00 to 6.30 | pIC50 [3]: 6.00 to 6.30

Cc1nnc(Sc2ncnc3cc(OCC4CCN(C)CC4)cc(OC4CCOCC4)c23)s1 [Example 2.48, 2-methyl-5-((7-((1-methylpiperidin-4-yl)methoxy)-5-((tetrahydro-2H-pyran-4-yl)oxy)quinazolin-4-yl)thio)-1,3,4-thiadiazole]
pIC50 [1]: 6.00 to 6.30 | pIC50 [2]: < 5.00 | pIC50 [3]: < 5.00

Cc1csc(Nc2ncnc3cc(OCC4CCN(C)CC4)cc(OC4CCOCC4)c23)n1 [Example 2.42, 4-methyl-N-(7-((1-methylpiperidin-4-yl)methoxy)-5-((tetrahydro-2H-pyran-4-yl)oxy)quinazolin-4-yl)thiazol-2-amine]
pIC50 [1]: > 6.30 | pIC50 [2]: 5.00 to 6.00 | pIC50 [3]: > 6.30

CN(C)CCCOc1cc(OC2CCOCC2)c2c(Nc3nc(C(F)(F)F)cs3)ncnc2c1 [Example 2.54, N-(7-(3-(dimethylamino)propoxy)-5-((tetrahydro-2H-pyran-4-yl)oxy)quinazolin-4-yl)-4-(trifluoromethyl)thiazol-2-amine]
pIC50 [1]: > 6.30 | pIC50 [2]: < 5.00 | pIC50 [3]: 5.00 to 6.00

CN(C)CCN(C)CCOc1cc(OC2CCOCC2)c2c(Oc3ccc(F)cc3Cl)ncnc2c1 [Example 2.15, N^1-(2-((4-(2-chloro-4-fluorophenoxy)-5-((tetrahydro-2H-pyran-4-yl)oxy)quinazolin-7-yl)oxy)ethyl)-N^1,N^2,N^2-trimethylethane-1,2-diamine]
pIC50 [1]: 5.00 to 6.00 | pIC50 [2]: 6.00 to 6.30 | pIC50 [3]: 6.00 to 6.30

CN1CCN(c2cc(OCCCN3CCOCC3)cc3ncnc(Oc4ccc(F)cc4Cl)c23)CC1 [Example 4.9, 4-(3-((4-(2-chloro-4-fluorophenoxy)-5-(4-methylpiperazin-1-yl)quinazolin-7-yl)oxy)propyl)morpholine]
pIC50 [1]: < 5.00 | pIC50 [2]: > 6.30 | pIC50 [3]: 5.00 to 6.00

COCCN(C)CCOc1cc(OC2CCOCC2)c2c(Oc3ccc(F)cc3Cl)ncnc2c1 [Example 2.3, 2-((4-(2-chloro-4-fluorophenoxy)-5-((tetrahydro-2H-pyran-4-yl)oxy)quinazolin-7-yl)oxy)-N-(2-methoxyethyl)-N-methylethanamine]
pIC50 [1]: < 5.00 | pIC50 [2]: 6.00 to 6.30 | pIC50 [3]: 5.00 to 6.00

COC(=O)Cc1cccc(Oc2ncnc3cc(OCCN4CCN(C)CC4)cc(OC4CCOCC4)c23)c1 [Example 2.31, methyl 2-(3-((7-(2-(4-methylpiperazin-1-yl)ethoxy)-5-((tetrahydro-2H-pyran-4-yl)oxy)quinazolin-4-yl)oxy)phenyl)acetate]
pIC50 [1]: 5.00 to 6.00 | pIC50 [2]: 6.00 to 6.30 | pIC50 [3]: < 5.00

COC(=O)c1cccc(Oc2ncnc3cc(OCCN4CCN(C)CC4)cc(OC4CCOCC4)c23)c1 [Example 2.30, methyl 3-((7-(2-(4-methylpiperazin-1-yl)ethoxy)-5-((tetrahydro-2H-pyran-4-yl)oxy)quinazolin-4-yl)oxy)benzoate]
pIC50 [1]: 5.00 to 6.00 | pIC50 [2]: 5.00 to 6.00 | pIC50 [3]: < 5.00

CCN(CC)CCNc1cc(OC2CCOCC2)c2c(Nc3nc(C(F)(F)F)cs3)ncnc2c1 [Example 7, N^7-(2-(diethylamino)ethyl)-5-((tetrahydro-2H-pyran-4-yl)oxy)-N^4-(4-(trifluoromethyl)thiazol-2-yl)quinazoline-4,7-diamine]
pIC50 [1]: 5.00 to 6.00 | pIC50 [2]: < 5.00 | pIC50 [3]: < 5.00

CN(C)CCC1CCN(c2cc(OC3CCOCC3)c3c(Nc4nc(C(F)(F)F)cs4)ncnc3c2)CC1 [Example 2.44, N-(7-(4-(2-(dimethylamino)ethyl)piperidin-1-yl)-5-((tetrahydro-2H-pyran-4-yl)oxy)quinazolin-4-yl)-4-(trifluoromethyl)thiazol-2-amine]
pIC50 [1]: > 6.30 | pIC50 [2]: 5.00 to 6.00

— patent publication US9771333B2, “Quinazoline derivatives as TAM family kinase inhibitors” (SIGNALCHEM LIFESCIENCES CORP., priority 2013, dated 2017)
